Article PMC9148287, “Cytotoxic and Radiosensitising Effects of a Novel Thioredoxin Reductase Inhibitor in Brain Cancers” (Molecular Neurobiology, 2022)

Assays:
[1] = system: DAOY cells; assay: Intracellular ROS levels (H2DCF-DA flow cytometry); assay type: cell-based, human; conditions: 1 mM H2O2 1 h
Experimental: (§1) Intracellular ROS levels were measured as described previously. Briefly, cells were treated with various concentrations of IQ10 for 4 h either alone or with subsequent exposure to 1 mM H2O2 (ROS positive control) for 1 h. Cells treated with DMSO, at the same dilution ratio as IQ10, were set as negative controls. Cells were then incubated with the cell-permeable dye 2′,7 ′-dichlorodihydrofluorescein diacetate (H2DCF-DA, Sigma) in fresh medium at a final concentration of 1 μM at 37 °C for 30 min. Cells were harvested and intracellular ROS levels assessed by measurement of fluorescence using a MACSquant flow cytometer (Miltenyi Biotec). A gate was set to include only healthy living cells in the analysis. Data were analysed using FlowJo 7.6.1 software (Tree Star) to obtain the median fluorescence intensity (MFI) of each group representing the amount of intracellular ROS generation.

[2] = system: UW228-3 cells; assay: Intracellular ROS levels (H2DCF-DA flow cytometry); assay type: cell-based, human; conditions: UW228-3, 1 mM H2O2 1 h
Experimental: as §1

[3] = system: SNB19 cells; assay: Clonogenic survival assay; assay type: cell-based; conditions: Homo sapiens, SNB-19; SNB19, 48 h post-treatment
Experimental: (§2) Cells collected from the growth assay (48 h time point) were counted and plated at low-density, in triplicate, and incubated at 37 °C, 5% CO2, undisturbed, for colony formation. After 12 days (21 days for KNS42), colonies were fixed (50% methanol in PBS), stained (0.5% crystal violet solution) and counted manually. Any cluster of cells greater than 50 in number was counted as a surviving colony. The plating efficiency (PE) was calculated as number of control colonies formed/number of control cells seeded. For single-agent treatment, drug or radiation, the surviving fraction (SF) was calculated as follows: number of colonies formed after treatment / (number of cells seeded × PE). For drug radiation combination experiments, cytotoxicity of drug treatment was accounted for by calculating SF as follows: number of colonies formed from each radiation dose / (number of cells seeded × PE × SF of drug-treated cell at 0 Gy).

[4] = system: KNS42 cells; assay: Clonogenic survival assay; assay type: cell-based; conditions: Homo sapiens, KNS-42; KNS42, 48 h post-treatment
Experimental: as §2

[5] = system: DAOY cells; assay: Clonogenic survival assay; assay type: cell-based; conditions: Homo sapiens, 48 h post-treatment
Experimental: as §2, with “For drug radiation combination experiments, cytotoxicity of drug treatment was accounted for by calculating SF as follows: number of colonies formed from each radiation dose / (number of cells seeded × PE × SF of drug-treated cell at 0 Gy).” left out
(§3) Cells were seeded in ultra-low attachment round-bottom 96-well plates (Corning), aggregated by centrifugation (2000 rpm/10 min), and allowed to grow for 4 days under standard culture conditions to form mature spheroids. […] Viability was assessed using the resazurin reduction assay (CellTiter-Blue, Promega) following the manufacturer’s protocol. […] Fluorescence was measured with an excitation wavelength of 560 nm and emission 590 nm on a plate reader. […] Six spheroids per condition were assessed in each experiment. The clonogenicity of cells cultured in spheroids was assessed using conventional 2D clonogenic survival assay as described above. […]

[6] = system: UW228-3 cells; assay: Clonogenic survival assay; assay type: cell-based; conditions: Homo sapiens; UW228-3, 48 h post-treatment
Experimental: as §2, with “For drug radiation combination experiments, cytotoxicity of drug treatment was accounted for by calculating SF as follows: number of colonies formed from each radiation dose / (number of cells seeded × PE × SF of drug-treated cell at 0 Gy).” left out
as §3

[7] = system: DAOY cells; assay: Growth assay (cell counts); assay type: cell-based; conditions: Homo sapiens, 2D normoxia
Experimental: (§4) Cells (2 × 10^5) were seeded in six-well plates, allowed to adhere overnight and then treated, in triplicate, with different concentrations of TMZ (0–1000 μM) or IQ10 (0–1 µM) for up to 72 h under normoxic or hypoxic conditions. DMSO was added to the negative control groups at the same volume equivalent to that in the treatment groups. For hypoxic experiments, cells were pre-incubated at 1% O2 for 24 h prior to drug treatment. Cells were then treated with different concentrations of IQ10 for up to an additional 72 h under hypoxia. Normoxic controls were always assessed in parallel to hypoxic-treated groups. Every 24 h after initiating drug treatment, cells were trypsinised and counted using a Countess system. Cell counts were recorded, analysed and plotted over the 72 h period.
(§5) Cells were seeded, in triplicate, in 24-well plates, incubated overnight and transfected with either a pre-designed siRNA directed against human TrxR-1 (SI00050876, target sequence, 5′-[…]-3′, Qiagen) or mock-transfected with a scrambled siRNA (Allstars Negative Control siRNA, Qiagen). Briefly, 2.5 μL of 2 μM siRNA and 4.5 μL HiPerFect transfection reagent (Qiagen) were combined in 100 μL medium (serum and antibiotic free) and incubated at room temperature for 10 min to allow complex formation. Reaction mixtures were then added to 400 μL of fresh medium. Medium was aspirated from wells and replaced with the appropriate 500 μL of transfection solution. After 48 h of incubation, the cells were re-plated, allowed to adhere overnight and treated with various concentrations of IQ10 for an additional 48 h. Growth curve and/or clonogenic survival assays were used as the endpoint to assess the drug effects. Western blotting analysis of TrxR and β-actin (as a loading control) were used to confirm that TrxR expression was suppressed for the duration of the experiment.

[8] = system: SF188 cells; assay: Growth assay (cell counts); assay type: cell-based; conditions: Homo sapiens, SF-188, 2D normoxia
Experimental: as §4, §5

[9] = system: SF188 cells; assay: Clonogenic survival assay; assay type: cell-based; conditions: Homo sapiens, SF-188; SF188, 48 h post-treatment
Experimental: as §2
Cells were seeded, in triplicate, in 24-well plates, incubated overnight and transfected with either a pre-designed siRNA directed against human TrxR-1 (SI00050876, target sequence, 5′-[…]-3′, Qiagen) or mock-transfected with a scrambled siRNA (Allstars Negative Control siRNA, Qiagen). […]

[10] = system: UW228-3 cells; assay: Growth assay (cell counts); assay type: cell-based; conditions: Homo sapiens, 2D normoxia
Experimental: as §4

[11] = system: SNB19 cells; assay: Growth assay (cell counts); assay type: cell-based; conditions: Homo sapiens, SNB-19, 2D normoxia
Experimental: as §4

[12] = system: KNS42 cells; assay: Growth assay (cell counts); assay type: cell-based; conditions: Homo sapiens, KNS-42, 2D normoxia
Experimental: as §4

[13] = system: TrxR; set-up: method as in PMID 17320769; conditions: ovarian cancer cells; cited from earlier work
[14] = target: T1, TrxR (Homo sapiens, UniProt Q16881); assay: TrxR activity assay (endpoint insulin reduction) on lysates of drug-treated cells; assay type: cell-based; conditions: 1 μM, 4 h; SF188, DAOY and UW228-3 cells
T1 construct: cells were trypsinised, counted and lysed in M-PER protein extraction reagent; endogenous in cells; host or cells: SF188, DAOY, UW228-3
T1 sequence (Q16881 151-649 limits assumed): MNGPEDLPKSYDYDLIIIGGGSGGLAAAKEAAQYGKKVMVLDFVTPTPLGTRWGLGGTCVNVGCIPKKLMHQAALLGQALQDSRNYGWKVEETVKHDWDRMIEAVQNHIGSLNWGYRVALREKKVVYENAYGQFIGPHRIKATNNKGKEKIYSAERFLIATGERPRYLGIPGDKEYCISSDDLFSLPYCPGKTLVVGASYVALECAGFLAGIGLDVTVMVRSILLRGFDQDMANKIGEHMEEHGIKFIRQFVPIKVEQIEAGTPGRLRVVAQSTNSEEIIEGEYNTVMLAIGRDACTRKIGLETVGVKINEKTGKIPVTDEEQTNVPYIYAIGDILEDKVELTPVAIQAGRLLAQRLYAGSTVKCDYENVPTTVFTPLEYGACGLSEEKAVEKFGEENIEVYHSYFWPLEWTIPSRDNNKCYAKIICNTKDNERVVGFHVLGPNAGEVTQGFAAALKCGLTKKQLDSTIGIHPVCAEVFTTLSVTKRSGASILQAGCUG
Experimental: Following incubation, with various concentrations of IQ10 or with 1 μM of auranofin, for 4/48 h, cells were trypsinised, counted and lysed in M-PER protein extraction reagent (Thermo Fisher) for 20 min. Lysates were analysed immediately or stored for future use at − 80 °C. The Bio-Rad protein assay kit (Bio-Rad Laboratories) was used to measure the protein concentration of each sample. TrxR activity was measured in 96-well plates using the endpoint insulin reduction assay as described previously with appropriate modifications. Briefly, the assay mixture contained the following in a final volume of 100 μL HE buffer (100 mM HEPES, pH 7.2; 5 mM EDTA): 80 µg of protein, 2 µM Escherichia coli Trx, 1 mg/ml bovine insulin and 1 mM NADPH. Duplicate samples were used, either with or without exogenous Trx enzyme. […] Absorbance was measured at 405 nm using a microplate reader (FLUOstar OPTIMA, BMG LABTECH). The absorbance of the sample lacking exogenous Trx was subtracted from that of the corresponding sample containing exogenous Trx. The difference in absorbance indicates TrxR function. The amount of functional TrxR was calculated from the standard curve, generated simultaneously, with pure enzymes. The TrxR activity was expressed as the percentage of DMSO-treated control.

OO [H2O2]
intracellular ROS levels compared to control [1]: 1.4 fold
intracellular ROS levels compared to control [2]: 1.5 fold

Cn1nnc2c(C(N)=O)ncn2c1=O [TMZ, temozolomide]
IC50 [3]: 63.7 ± 10 µM
IC50 [4]: 49.5 ± 11.4 µM
IC50 [5]: 464 ± 20.1 µM
IC50 [6]: 93.1 ± 30 µM
IC50 ([7]; 24 h): 547 ± 11.6 µM
IC50 ([7]; 48 h): 248 ± 49.8 µM
IC50 ([7]; 72 h): 162 ± 14.3 µM
IC50 ([8]; SF188, 24 h): > 1000 µM
IC50 ([8]; SF188, 48 h): 321 ± 86.8 µM
IC50 ([8]; SF188, 72 h): 188 ± 24.1 µM
IC50 [9]: 15.2 ± 0.9 µM
IC50 ([10]; UW228-3, 24 h): > 1000 µM
IC50 ([10]; UW228-3, 48 h): 314 ± 17.8 µM
IC50 ([10]; UW228-3, 72 h): 148 ± 14.7 µM
IC50 ([11]; SNB19, 24 h): > 1000 µM
IC50 ([11]; SNB19, 48 h): > 1000 µM
IC50 ([11]; SNB19, 72 h): 980 ± 281 µM
IC50 ([12]; KNS42, 24 h): > 1000 µM
IC50 ([12]; KNS42, 48 h): > 1000 µM
IC50 ([12]; KNS42, 72 h): 731 ± 24.3 µM

CC(=O)OC[C@H]1O[C@@H]([S-])[C@H](OC(C)=O)[C@@H](OC(C)=O)[C@@H]1OC(C)=O.CCP(CC)CC.[Au+] [auranofin]
concentrations inhibiting TrxR [13]: nanomolar concentrations
average TrxR inhibition [14]: 83–95%
